# According to PubChem BioAssay (NCI):
#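 Five compound concentrations were applied to cells in 96-well plates for 48 hours; endpoints were derived by simple linear interpolation of the resulting dose-response curve. Here, GI50 denotes the concentration required for 50% inhibition of growth. Definition used: TGI = concentration required for complete inhibition of growth.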
# What was measured:
# Assay in all cases: DTP human tumour cell line panel, 48 h
# [1] = test system: XF 498 CNS
# [2] = test system: UACC-257 melanoma
# [3] = test system: NCI-H23 lung
# [4] = test system: UO-31 renal
# [5] = test system: LOX IMVI melanoma
# [6] = test system: OVCAR-5 ovarian
# [7] = test system: SNB-75 CNS
# [8] = test system: DMS 273 small cell lung
# [9] = test system: NCI-H226 lung
# [10] = test system: T-47D breast
smiles,measurement,setting,value
C/C(CC(=O)Nc1cccc(Cl)c1C)=N\NC(=O)c1ccncc1,TGI,[1],> 100 µM
same,TGI,[2],> 100 µM
same,TGI,[3],> 100 µM
same,TGI,[4],> 100 µM
same,TGI,[5],> 100 µM
same,TGI,[6],> 100 µM
same,TGI,[7],> 100 µM
same,TGI,[8],> 100 µM
same,TGI,[9],> 100 µM
CC(=O)O[C@H]1CCC2[C@@H]3CCC4Nc5[nH]ncc5C[C@]4(C)C3CC[C@@]21C (stereo partly drawn),TGI,[1],87 µM
same,TGI,[2],72.4 µM
same,TGI,[3],> 100 µM
same,TGI,[4],> 100 µM
same,TGI,[5],> 100 µM
same,TGI,[6],> 100 µM
same,TGI,[7],> 100 µM
same,TGI,[8],> 100 µM
same,TGI,[9],> 100 µM
O=S(=O)(c1ccccc1)C1CN2OC1(S(=O)(=O)c1ccccc1)CC2c1ccc(Br)cc1 (stereo not drawn),TGI,[1],57.5 µM
same,TGI,[2],> 100 µM
same,TGI,[3],> 100 µM
same,TGI,[4],> 100 µM
same,TGI,[5],> 100 µM
same,TGI,[6],> 100 µM
same,TGI,[7],22.1 µM
same,TGI,[8],> 100 µM
same,TGI,[9],> 100 µM
O=C(O)CC(NC(=O)CP(=O)(O)O)C(=O)O (stereo not drawn),TGI,[1],> 3160 µM
same,TGI,[10],> 10000 µM
same,GI50,[2],3150 µM
same,TGI,[2],> 10000 µM
same,TGI,[3],> 10000 µM
same,TGI,[4],> 10000 µM
same,TGI,[5],824 µM
same,TGI,[6],> 10000 µM
same,TGI,[7],> 10000 µM
same,TGI,[8],> 9020 µM
same,TGI,[9],7210 µM
COC(=O)/C=C/c1c(CC=C(C)C)ncn1C,TGI,[1],> 100 µM
same,TGI,[2],> 100 µM
same,TGI,[3],> 100 µM
same,TGI,[4],> 92.7 µM
same,TGI,[5],> 100 µM
same,TGI,[6],> 100 µM
same,TGI,[7],56 µM
same,TGI,[8],> 100 µM
same,TGI,[9],> 89.8 µM
S=c1[nH]c(=S)c2nnn(-c3ccccc3)c2[nH]1,TGI,[1],> 100 µM
same,TGI,[2],> 100 µM
same,TGI,[3],> 100 µM
same,TGI,[4],> 100 µM
same,TGI,[5],> 100 µM
same,TGI,[6],> 100 µM
same,TGI,[7],> 100 µM
same,TGI,[8],> 100 µM
same,TGI,[9],> 100 µM
CC(C)C(=O)Nc1nc2c(ncn2C2OC(CO)C(O)C2O)c(=O)[nH]1 (stereo not drawn),TGI,[1],> 100 µM
same,TGI,[2],> 100 µM
same,TGI,[3],> 100 µM
same,TGI,[4],> 100 µM
same,TGI,[5],> 100 µM
same,TGI,[6],> 100 µM
same,TGI,[7],> 100 µM
same,TGI,[8],> 100 µM
same,TGI,[9],> 100 µM
CC(=O)[O][Ga]([Br])[O]C(C)=O,GI50,[1],> 100 µM
same,TGI,[1],> 100 µM
same,GI50,[2],> 100 µM
same,TGI,[2],> 100 µM
same,GI50,[3],> 100 µM
same,TGI,[3],> 100 µM
same,GI50,[4],> 100 µM
same,TGI,[4],> 100 µM
same,GI50,[5],> 100 µM
same,TGI,[5],> 100 µM
same,GI50,[6],> 100 µM
same,TGI,[6],> 100 µM
same,GI50,[7],> 100 µM
same,TGI,[7],> 100 µM
same,GI50,[8],> 100 µM
same,TGI,[8],> 100 µM
same,GI50,[9],> 100 µM
same,TGI,[9],> 100 µM
